From a melting point compilation (Tetko et al.; mined from patent text by program, amines drawn as free bases though some values may be those of a salt)

Structure (SMILES)	melting point [°C]
C=CCNC(=O)N1CC(c2ccc(C(C)(C)C)cc2)C1	98 to 99
CNC(=NC#N)NCCSCc1ccc(CN)o1	80 to 82
CC(=O)N(C)c1cccc(C2=CCNc3c(C#N)cnn32)c1	114 to 120
CCOc1ccc(Oc2ccc(CNC(=O)c3sc(C)nc3C)cc2)cc1	99 to 101
CC1(C)NC(=O)Oc2ccc(OCc3ccccc3)cc21	134
CCOc1cc2c(Nc3cc(OC)c(Cl)cc3Cl)c(C#N)cnc2cc1OCCCN1CCN(CC)CC1	127 to 130
CC(=O)c1cc(N2CCCC2)ccc1NC(=O)c1cccc(OCc2ccccc2)c1	131 to 133
COc1ccc(C(=O)Nc2c(C)c(C)c3c(c2C)C(c2ccc(C)cc2)C(C)(C)O3)cc1OC (centres undefined)	169 to 171
CC(=O)c1ccc(C#Cc2ccc(C(C)=O)s2)s1	214
Cc1ccc(C(=O)n2nc(Nc3cccc(OCC#N)c3)nc2N)cc1	236 to 241
COc1ccc2c(c1)Cc1nnc(OC)n1C=C2	176 to 177
CS(=O)(=O)c1ccc(-n2nc(CNC(=O)Nc3ccc(OC(F)(F)F)cc3)cc2-c2ccccc2)cc1	153 to 156
CC(=O)c1ccc(OCCCN2CCC(c3noc4cc(F)ccc34)CC2)c(CC(N)=O)c1	108 to 110
CN1CCC(=O)C(C2c3ccccc3C=Cc3ccccc32)C1 (centres undefined)	144 to 158
O=C(c1ccccc1)N(N=Cc1ccccc1)c1ccccc1F	97 to 99
CCOc1cc(C(C)C)ccc1C1CCN(CCCCNC(=O)c2ccc(NC(=O)c3ccc(Cl)cc3)cc2)CC1	242
N[C@H]1CCN(c2cc3c(cc2F)c(=O)c(C(=O)O)cn3-c2c[nH]nn2)C1	300
CCOC(=O)Cc1cccc(Sc2ccccc2Cl)c1[N+](=O)[O-]	78 to 80
COc1ccc(C)cc1NC(=O)Nc1ccc(N2CCN(C(=O)Nc3ccc(NC(C)=O)cc3Cl)CC2)cc1	155 to 157
CCCn1nc2c(N)nc3cnccc3c2c1CCNC(=O)c1ccc(F)cc1	317 to 318
Cc1c(-c2ccc3c(c2)OCO3)[nH]c2ccc(OCc3ccccc3)cc12	142 to 145
CC(C)C[C@H](NC(=O)OCc1ccccc1)C(=O)N[C@@H](Cc1ccccc1)C(=O)CSCc1ccco1	77 to 78
CCOCc1nc2c(N)nc3ccccc3c2n1CCCCC(=O)N1CCOCC1	128 to 129
CCC(=O)C1(Nc2ccccc2)CCN(CCc2ccccc2)CC1	106
O=C(C=Cc1ccc(O)c(O)c1)C=Cc1ccc(O)c(O)c1	221 to 223

Structure (SMILES)	melting point [°C]
NP(N)(=S)N1CCCC1	95 to 99
OCc1cc(N2CCCC2)c(Br)cn1	108 to 110
COc1ccc(-n2nc(C#N)cc2-c2ccc(S(C)(=O)=O)cc2)cc1Br	184 to 186
O=C1c2ccccc2COc2ccc(CCO)cc21	78 to 81.5
CC(C)(C)OC(=O)N1CCC=C(c2ccnc(C(=O)N(O)Cc3ccccc3)c2)C1	128 to 134
CCC(C)OC1OCC(O)(N(CC(C)C)C(=O)N(CCCl)N=O)C(O)C1O (centres undefined)	63 to 65
CCC1(C)C(=O)c2cc(OC)c(Cl)c(Cl)c2C1=O (centres undefined)	157
O=[N+]([O-])c1cccc(C2Nn3cc(-c4ccc(-c5ccccc5)cc4)nc3S2)c1 (centres undefined)	263 to 265
CC1CNc2c3c(nc4cccc(c24)O1)CCCC3 (centres undefined)	169 to 170
CCOP(=O)(CNCc1cccnc1-c1cc(C(C)(C)C)c(O)c(C(C)(C)C)c1)OCC	100 to 101
CCCCCCCCCCNC(=O)[C@@H]1C[C@H]1c1ccc([N+](=O)[O-])cc1 (relative stereo)	127 to 129
CC(C)N=C(N)Nc1ccnc(OCCCO)n1	181 to 183
COC(=O)C1=Cc2cc(-c3ccc(C(F)(F)F)cc3)ccc2S(=O)(=O)CC1	168 to 170
Cc1c(C(=O)Nc2ccc(N3CCN(CCO)CC3)c(C#N)c2)cnn1C	228 to 230
CCCc1cc(NC(=O)N2CCN(c3cc(F)cc(F)c3)CC2)c(OC)nc1C	121 to 123
CC(C)C(=O)ON(C(=O)NN(C)C)C1c2ccccc2Oc2ccccc21	131 to 132
NC(=O)c1ccc(NCc2cccc([N+](=O)[O-])c2)cc1	178 to 180
CC(C)c1nn2ccccc2c1S(=O)(=O)c1ccc(O)cc1	146
Cc1ccc2c(c1)C(=O)C(C#N)C2=O (centres undefined)	176 to 178
COc1nc(OC)c(SC)c(OC)n1	90.5 to 91
CCC1(CO)Cc2cc(OCC(=O)O)c(Cl)c(Cl)c2C1=O (centres undefined)	155 to 157
Cc1ccc(-c2nnc(N3CCC(O)CC3)nc2-c2ccc(C)cc2)cc1	167 to 168
Cc1cc(-c2noc(C3CC3)n2)cc(C)c1OCCCc1cc(O)no1	155 to 156
CN(C)c1cc(CCl)nc(N)n1	127 to 129
